28 compounds from patent publication US8846698B2, “Pyrrolo[2,3-d]pyrimidine tropomysin-related kinase inhibitors” (Pfizer Limited, priority 2011, dated 2014) can be followed below.

For the assay, the target named is TRKA (Homo sapiens (Human), UniProt P04629). As to the kind of experiment: Isolated TRK enzyme assay (HTRF KinEASE-TK), TRKA. It counts as biochemical. The following applies: read-out: Trka enzyme (IC50).
Sequence of TRKA (P04629 441-796): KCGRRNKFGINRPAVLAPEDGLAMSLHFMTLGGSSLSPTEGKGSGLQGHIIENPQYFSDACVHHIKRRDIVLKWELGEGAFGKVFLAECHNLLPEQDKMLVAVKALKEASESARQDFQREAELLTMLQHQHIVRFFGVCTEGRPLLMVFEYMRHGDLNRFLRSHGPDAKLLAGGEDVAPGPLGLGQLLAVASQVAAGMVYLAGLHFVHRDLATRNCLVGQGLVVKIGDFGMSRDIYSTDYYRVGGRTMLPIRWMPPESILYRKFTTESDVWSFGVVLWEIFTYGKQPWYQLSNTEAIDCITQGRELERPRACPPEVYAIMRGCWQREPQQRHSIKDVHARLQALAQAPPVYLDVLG
Regarding `CC(C)(CO)n1cc(C(=O)c2cncc(NC(=O)Cc3ncc(Cl)cc3F)c2)c2cnc(N)nc21` [Example 560, N-{5-[2-Amino-7-(2-hydroxy-1,1-dimethyl-ethyl)-7H-pyrrolo[2,3-d]pyrimidine-5-carbonyl]-pyridin-3-yl}-2-(5-chloro-3-fluoro-pyridin-2-yl)-acetamide], the IC50 worked out at 1.61 µM. Turning to `CCOc1ccc(CC(=O)Nc2cncc(C(=O)c3cn(C(C)(C)CO)c4nc(N)ncc34)c2)nc1` [Example 561, N-{5-[2-Amino-7-(2-hydroxy-1,1-dimethyl-ethyl)-7H-pyrrolo[2,3-d]pyrimidine-5-carbonyl]-pyridin-3-yl}-2-(5-ethoxy-pyridin-2-yl)-acetamide], the IC50 turned out to be 0.112 µM. Then `CC(C)(CO)n1cc(C(=O)c2cncc(NC(=O)Cc3ccc(C(F)(F)F)cn3)c2)c2cnc(N)nc21` [Example 562, N-{5-[2-Amino-7-(2-hydroxy-1,1-dimethyl-ethyl)-7H-pyrrolo[2,3-d]pyrimidine-5-carbonyl]-pyridin-3-yl}-2-(5-trifluoromethyl-pyridin-2-yl)-acetamide], with 0.00375 µM. Consider `CC(C)(CO)n1cc(C(=O)c2cncc(NC(=O)Cn3cc(C(F)(F)F)cn3)c2)c2cnc(N)nc21` [Example 563, N-{5-[2-Amino-7-(2-hydroxy-1,1-dimethyl-ethyl)-7H-pyrrolo[2,3-d]pyrimidine-5-carbonyl]-pyridin-3-yl}-2-(4-trifluoromethyl-pyrazol-1-yl)-acetamide], for which the IC50 was found to be 0.00311 µM. Regarding `CC(C)(CO)n1cc(C(=O)c2cncc(NC(=O)Cc3ccc(NS(C)(=O)=O)cc3)c2)c2cnc(N)nc21` [Example 564, N-{5-[2-Amino-7-(2-hydroxy-1,1-dimethyl-ethyl)-7H-pyrrolo[2,3-d]pyrimidine-5-carbonyl]-pyridin-3-yl}-2-(4-methanesulfonylamino-phenyl)-acetamide], the IC50 stood at 0.00157 µM. Regarding `CC(C)(CO)n1cc(C(=O)c2cncc(NC(=O)Cc3ccc(OC(F)F)cc3)c2)c2cnc(N)nc21` [Example 565, N-{5-[2-Amino-7-(2-hydroxy-1,1-dimethyl-ethyl)-7H-pyrrolo[2,3-d]pyrimidine-5-carbonyl]-pyridin-3-yl}-2-(4-difluoromethoxy-phenyl)-acetamide], the IC50 was 0.0179 µM.

`CC(C)(CO)n1cc(C(=O)c2cncc(NC(=O)Cc3ccc(OC(F)(F)F)cc3)c2)c2cnc(N)nc21` [Example 567, N-{5-[2-Amino-7-(2-hydroxy-1,1-dimethyl-ethyl)-7H-pyrrolo[2,3-d]pyrimidine-5-carbonyl]-pyridin-3-yl}-2-(4-trifluoromethoxy-phenyl)-acetamide]: the IC50 was 0.0208 µM. For the compound `CC(C)(CO)n1cc(C(=O)c2cncc(NC(=O)Cc3ccc(F)c(F)c3)c2)c2cnc(N)nc21` [Example 568, N-{5-[2-Amino-7-(2-hydroxy-1,1-dimethyl-ethyl)-7H-pyrrolo[2,3-d]pyrimidine-5-carbonyl]-pyridin-3-yl}-2-(3,4-difluoro-phenyl)-acetamide], the IC50 was 0.0121 µM.

Regarding `CC(C)(CO)n1cc(C(=O)c2cncc(NC(=O)Cc3ncc(Cl)cn3)c2)c2cnc(N)nc21` [Example 569, N-{5-[2-Amino-7-(2-hydroxy-1,1-dimethyl-ethyl)-7H-pyrrolo[2,3-d]pyrimidine-5-carbonyl]-pyridin-3-yl}-2-(5-chloro-pyrimidin-2-yl)-acetamide], the IC50 is 0.0344 µM.

Regarding `N#Cc1ccc(CC(=O)Nc2cncc(C(=O)c3c[nH]c4ncncc34)c2)cc1` [Example 570, 2-(4-Cyano-phenyl)-N-[5-(7H-pyrrolo[2,3-d]pyrimidine-5-carbonyl)-pyridin-3-yl]-acetamide], the IC50 stood at 6.97 µM. For `CC1(n2cc(C(=O)c3cncc(NC(=O)Cc4ccc(C(F)(F)F)cc4)c3)c3cncnc32)COC1` [Example 571, N-{5-[7-(3-Methyl-oxetan-3-yl)-7H-pyrrolo[2,3-d]pyrimidine-5-carbonyl]-pyridin-3-yl}-2-(4-trifluoromethyl-phenyl)-acetamide], the IC50 is 0.00292 µM. As to `CC1(n2cc(C(=O)c3cncc(NC(=O)Cc4cccc(C(F)(F)F)c4)c3)c3cncnc32)COC1` [Example 572, N-{5-[7-(3-Methyl-oxetan-3-yl)-7H-pyrrolo[2,3-d]pyrimidine-5-carbonyl]-pyridin-3-yl}-2-(3-trifluoromethyl-phenyl)-acetamide], the IC50 worked out at 0.0095 µM. Take `CC1(n2cc(C(=O)c3cncc(NC(=O)Cc4ccc(C(F)(F)F)c(F)c4)c3)c3cncnc32)COC1` [Example 573, 2-(3-Fluoro-4-trifluoromethyl-phenyl)-N-{5-[7-(3-methyl-oxetan-3-yl)-7H-pyrrolo[2,3-d]pyrimidine-5-carbonyl]-pyridin-3-yl}-acetamide]: the IC50 amounted to 0.0179 µM.

Consider `CC1(n2cc(C(=O)c3cncc(NC(=O)c4cccc(C(F)(F)F)c4)c3)c3cncnc32)COC1` [Example 574, N-{5-[7-(3-Methyl-oxetan-3-yl)-7H-pyrrolo[2,3-d]pyrimidine-5-carbonyl]-pyridin-3-yl}-3-trifluoromethyl-benzamide], for which the IC50 stood at 0.0142 µM. For `CC1(n2cc(C(=O)c3cncc(NC(=O)c4cccc(OC(F)(F)F)c4)c3)c3cncnc32)COC1` [Example 575, N-{5-[7-(3-Methyl-oxetan-3-yl)-7H-pyrrolo[2,3-d]pyrimidine-5-carbonyl]-pyridin-3-yl}-3-trifluoromethoxy-benzamide], the IC50 is 0.00309 µM. With `CC(C)(CO)n1cc(C(=O)c2cncc(NC(=O)Cn3cc(C4CC4)cn3)c2)c2cnc(N)nc21` [Example 576, N-{5-[2-Amino-7-(2-hydroxy-1,1-dimethyl-ethyl)-7H-pyrrolo[2,3-d]pyrimidine-5-carbonyl]-pyridin-3-yl}-2-(4-cyclopropyl-pyrazol-1-yl)-acetamide], the IC50 is 0.296 µM. Regarding `CC(C)(C)n1cc(C(=O)c2cncc(NC(=O)Cn3cc(C4CC4)cn3)c2)c2cnc(N)nc21` [Example 577, N-[5-(2-Amino-7-tert-butyl-7H-pyrrolo[2,3-d]pyrimidine-5-carbonyl)-pyridin-3-yl]-2-(4-cyclopropyl-pyrazol-1-yl)-acetamide], the IC50 stood at 0.0019 µM. Turning to `Nc1ncc2c(C(=O)c3cncc(NC(=O)Cc4ccc(F)cn4)c3)cn(C34CC(C3)C4)c2n1` [Example 578, N-[5-(2-Amino-7-bicyclo[1.1.1]pent-1-yl-7H-pyrrolo[2,3-d]pyrimidine-5-carbonyl)-pyridin-3-yl]-2-(5-fluoro-pyridin-2-yl)-acetamide], the IC50 is 0.00607 µM. Then `CS(=O)(=O)c1cccc(CC(=O)Nc2cncc(C(=O)c3cn(C45CC(C4)C5)c4nc(N)ncc34)c2)c1` [Example 579, N-[5-(2-Amino-7-bicyclo[1.1.1]pent-1-yl-7H-pyrrolo[2,3-d]pyrimidine-5-carbonyl)-pyridin-3-yl]-2-(3-methanesulfonyl-phenyl)-acetamide], with 0.00811 µM.

As to `Nc1ncc2c(C(=O)c3cncc(NC(=O)Cn4ccc(C(F)(F)F)n4)c3)cn(C34CC(C3)C4)c2n1` [Example 580, N-[5-(2-Amino-7-bicyclo[1.1.1]pent-1-yl-7H-pyrrolo[2,3-d]pyrimidine-5-carbonyl)-pyridin-3-yl]-2-(3-trifluoromethyl-pyrazol-1-yl)-acetamide], the IC50 turned out to be 0.000825 µM. Regarding `Nc1ncc2c(C(=O)c3cncc(NC(=O)Cn4cc(C(F)(F)F)nn4)c3)cn(C34CC(C3)C4)c2n1` [Example 581, N-[5-(2-Amino-7-bicyclo[1.1.1]pent-1-yl-7H-pyrrolo[2,3-d]pyrimidine-5-carbonyl)-pyridin-3-yl]-2-(4-trifluoromethyl-[1,2,3]triazol-1-yl)-acetamide], the IC50 stood at 0.00321 µM. In the case of `N#Cc1ccc(CC(=O)Nc2cncc(C(=O)c3cn(C45CC(C4)C5)c4nc(N)ncc34)c2)cc1` [Example 582, N-[5-(2-Amino-7-bicyclo[1.1.1]pent-1-yl-7H-pyrrolo[2,3-d]pyrimidine-5-carbonyl)-pyridin-3-yl]-2-(4-cyano-phenyl)-acetamide] it was 0.00979 µM; in that of `Nc1ncc2c(C(=O)c3cncc(NC(=O)Cc4ccc(Cl)cn4)c3)cn(C34CC(C3)C4)c2n1` [Example 583, N-[5-(2-Amino-7-bicyclo[1.1.1]pent-1-yl-7H-pyrrolo[2,3-d]pyrimidine-5-carbonyl)-pyridin-3-yl]-2-(5-chloro-pyridin-2-yl)-acetamide], 0.000681 µM. In the case of `CC(C)n1cc(C(=O)c2c[nH]c(=O)c(NC(=O)Cc3ccc(C#N)cc3)c2)c2cncnc21` [Example 584, 2-(4-cyanophenyl)-N-(2-oxo-5-{[7-(propan-2-yl)-7H-pyrrolo[2,3-d]pyrimidin-5-yl]carbonyl}-1,2-dihydropyridin-3-yl)acetamide], the IC50 was found to be 0.581 µM. Consider `CC(C)n1cc(C(=O)c2c[nH]c(=O)c(NC(=O)COc3ccccc3OC(F)(F)F)c2)c2cncnc21` [Example 585, N-(2-oxo-5-{[7-(propan-2-yl)-7H-pyrrolo[2,3-d]pyrimidin-5-yl]carbonyl}-1,2-dihydropyridin-3-yl)-2-[2-(trifluoromethoxy)phenoxy]acetamide], for which the IC50 amounted to 0.0367 µM. Take `CC(C)n1cc(C(=O)c2c[nH]c(=O)c(NC(=O)Cc3coc(C4CC4)n3)c2)c2cncnc21` [Example 586, 2-(2-cyclopropyl-1,3-oxazol-4-yl)-N-(2-oxo-5-{[7-(propan-2-yl)-7H-pyrrolo[2,3-d]pyrimidin-5-yl]carbonyl}-1,2-dihydropyridin-3-yl)acetamide]: the IC50 is 1 µM. Regarding `Cc1cc(C(F)(F)F)nn1CC(=O)Nc1cc(C(=O)c2cn(C(C)C)c3ncncc23)c[nH]c1=O` [Example 587, 2-[5-methyl-3-(trifluoromethyl)-1H-pyrazol-1-yl]-N-(2-oxo-5-{[7-(propan-2-yl)-7H-pyrrolo[2,3-d]pyrimidin-5-yl]carbonyl}-1,2-dihydropyridin-3-yl)acetamide], the IC50 was 0.0205 µM. `CC(C)n1cc(C(=O)c2c[nH]c(=O)c(NC(=O)Cc3ccc4cccnc4c3)c2)c2cncnc21` [Example 588, N-(2-oxo-5-{[7-(propan-2-yl)-7H-pyrrolo[2,3-d]pyrimidin-5-yl]carbonyl}-1,2-dihydropyridin-3-yl)-2-(quinolin-7-yl)acetamide]: the IC50 is 0.334 µM.
